Measurements reported in PubChem BioAssay (NCI).
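Briefly, cells in 96-well plates were exposed to five compound concentrations for 48 h, and endpoints were estimated by linear interpolation. GI50 marks 50% less growth. TGI marks complete inhibition of growth.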

Key:
Assay in all cases: NCI tumour cell line growth inhibition, 48 h
HOP-92 NSCLC = system: HOP-92 NSCLC
SF-295 CNS = system: SF-295 CNS
SNB-75 CNS = system: SNB-75 CNS
COLO 205 colon = system: COLO 205 colon
SF-268 CNS = system: SF-268 CNS
SK-MEL-5 melanoma = system: SK-MEL-5 melanoma
HL-60(TB) leukemia = system: HL-60(TB) leukemia
NCI-H226 lung = system: NCI-H226 lung
MALME-3M melanoma = system: MALME-3M melanoma
NCI-H522 lung = system: NCI-H522 lung
IGROV1 ovarian = system: IGROV1 ovarian
UACC-257 melanoma = system: UACC-257 melanoma
A549 NSCLC = system: A549 NSCLC
TK-10 renal = system: TK-10 renal
HS 578T breast = system: HS 578T breast
UACC-62 melanoma = system: UACC-62 melanoma
SNB-19 CNS = system: SNB-19 CNS
K-562 leukemia = system: K-562 leukemia
NCI-H23 lung = system: NCI-H23 lung
LOX IMVI melanoma = system: LOX IMVI melanoma
SK-MEL-28 melanoma = system: SK-MEL-28 melanoma
SN12C renal = system: SN12C renal
MOLT-4 leukemia = system: MOLT-4 leukemia
MDA-MB-435 = system: MDA-MB-435
DU-145 prostate = system: DU-145 prostate
T-47D breast = system: T-47D breast
HCC-2998 colon = system: HCC-2998 colon
EKVX NSCLC = system: EKVX NSCLC
KM12 colon = system: KM12 colon
SK-MEL-2 melanoma = system: SK-MEL-2 melanoma
OVCAR-8 ovarian = system: OVCAR-8 ovarian
ACHN renal = system: ACHN renal
HOP-62 NSCLC = system: HOP-62 NSCLC
CAKI-1 renal = system: CAKI-1 renal
SK-OV-3 ovarian = system: SK-OV-3 ovarian
OVCAR-5 ovarian = system: OVCAR-5 ovarian
PC-3 prostate = system: PC-3 prostate
UO-31 renal = system: UO-31 renal
SR leukemia = system: SR leukemia
OVCAR-4 ovarian = system: OVCAR-4 ovarian
MDA-MB-231 breast = system: MDA-MB-231 breast
RPMI-8226 leukemia = system: RPMI-8226 leukemia
A498 renal = system: A498 renal
HT29 colon = system: HT29 colon
SF-539 CNS = system: SF-539 CNS
CCRF-CEM leukemia = system: CCRF-CEM leukemia
RXF 393 renal = system: RXF 393 renal

**Q.** What does the source list for `O=C(/C=C/c1ccccc1Cl)c1nc2ccccc2n1Cc1ccc(F)cc1`?
**A.** GI50 (HOP-92 NSCLC): 16.4 µM; TGI (HOP-92 NSCLC): 62.8 µM; GI50 (SF-295 CNS): 5.01 µM; TGI (SF-295 CNS): 25.1 µM; GI50 (SNB-75 CNS): 3.3 µM; TGI (SNB-75 CNS): > 100 µM; GI50 (COLO 205 colon): 4.01 µM; TGI (COLO 205 colon): > 100 µM; GI50 (SF-268 CNS): 8.56 µM; TGI (SF-268 CNS): > 100 µM; GI50 (SK-MEL-5 melanoma): 5.23 µM; TGI (SK-MEL-5 melanoma): > 100 µM; GI50 (HL-60(TB) leukemia): 2.51 µM; TGI (HL-60(TB) leukemia): > 100 µM; GI50 (NCI-H226 lung): 25.4 µM; TGI (NCI-H226 lung): > 100 µM; GI50 (MALME-3M melanoma): 8.22 µM; TGI (MALME-3M melanoma): 70.2 µM; GI50 (NCI-H522 lung): 4.49 µM; TGI (NCI-H522 lung): > 100 µM; GI50 (IGROV1 ovarian): 3.33 µM; TGI (IGROV1 ovarian): > 100 µM; GI50 (UACC-257 melanoma): 8.88 µM; TGI (UACC-257 melanoma): > 100 µM; GI50 (A549 NSCLC): 8.06 µM; TGI (A549 NSCLC): > 100 µM; GI50 (TK-10 renal): 6.22 µM; TGI (TK-10 renal): > 100 µM; GI50 (HS 578T breast): 4.51 µM; TGI (HS 578T breast): 58.6 µM; GI50 (UACC-62 melanoma): 3.42 µM; TGI (UACC-62 melanoma): 17.9 µM; GI50 (SNB-19 CNS): 3.99 µM; TGI (SNB-19 CNS): 70 µM; GI50 (K-562 leukemia): 3.3 µM; TGI (K-562 leukemia): > 100 µM; GI50 (NCI-H23 lung): 4.25 µM; TGI (NCI-H23 lung): > 100 µM; GI50 (LOX IMVI melanoma): 1.65 µM; TGI (LOX IMVI melanoma): 3.23 µM; GI50 (SK-MEL-28 melanoma): 2.75 µM; TGI (SK-MEL-28 melanoma): 7.72 µM; GI50 (SN12C renal): 20.1 µM; TGI (SN12C renal): > 100 µM; GI50 (MOLT-4 leukemia): 3.04 µM; TGI (MOLT-4 leukemia): > 100 µM; GI50 (MDA-MB-435): 2.37 µM; TGI (MDA-MB-435): 5.92 µM; GI50 (DU-145 prostate): 4.61 µM; TGI (DU-145 prostate): > 100 µM; GI50 (T-47D breast): 3.44 µM; TGI (T-47D breast): > 100 µM; GI50 (HCC-2998 colon): 3.16 µM; TGI (HCC-2998 colon): 55.8 µM; GI50 (EKVX NSCLC): 6.44 µM; TGI (EKVX NSCLC): > 100 µM; GI50 (KM12 colon): 3.34 µM; TGI (KM12 colon): > 100 µM; GI50 (SK-MEL-2 melanoma): 13.4 µM; TGI (SK-MEL-2 melanoma): > 100 µM; GI50 (OVCAR-8 ovarian): 3.25 µM; TGI (OVCAR-8 ovarian): > 100 µM; GI50 (ACHN renal): 5.23 µM; TGI (ACHN renal): > 100 µM; GI50 (HOP-62 NSCLC): 5.03 µM; TGI (HOP-62 NSCLC): 41.9 µM; GI50 (CAKI-1 renal): 3.47 µM; TGI (CAKI-1 renal): > 100 µM; GI50 (SK-OV-3 ovarian): 32.5 µM; TGI (SK-OV-3 ovarian): > 100 µM; GI50 (OVCAR-5 ovarian): 3.76 µM; TGI (OVCAR-5 ovarian): 73.1 µM; GI50 (PC-3 prostate): 4.45 µM; TGI (PC-3 prostate): > 100 µM; GI50 (UO-31 renal): 2.58 µM; TGI (UO-31 renal): 11.2 µM; GI50 (SR leukemia): 2.87 µM; TGI (SR leukemia): > 100 µM; GI50 (OVCAR-4 ovarian): 23 µM; TGI (OVCAR-4 ovarian): > 100 µM; GI50 (MDA-MB-231 breast): 2.59 µM; TGI (MDA-MB-231 breast): 6.68 µM; GI50 (RPMI-8226 leukemia): 2.97 µM; TGI (RPMI-8226 leukemia): > 100 µM; GI50 (A498 renal): 61.8 µM; TGI (A498 renal): > 100 µM; GI50 (HT29 colon): 3.64 µM; TGI (HT29 colon): > 100 µM; GI50 (SF-539 CNS): 2.33 µM; TGI (SF-539 CNS): 5.67 µM; GI50 (CCRF-CEM leukemia): 2.45 µM; TGI (CCRF-CEM leukemia): > 100 µM; GI50 (RXF 393 renal): 2.06 µM; TGI (RXF 393 renal): 5.35 µM
